These results are taken from patent US20150086557A1, “NOVEL INTEGRIN alpha9 beta1 LIGAND AND USES THEREOF” (OSAKA UNIVERSITY, priority 2012, published 2015).

One test concerns cardiac stem cells. Kind of test: Cell adhesion assay using GFP label-retaining cells (cardiac stem cells). The format is cell-based, mouse. Conditions: 100 nM coating, FIG. 25. An excerpt: Tissue stem cells are known to generally have a very prolonged, cell cycle and thus allow labeling compounds incorporated into DNA and the cell interior to remain stable for a long period of time without decay along with cell division, This nature can be advantageously used to identify and separate tissue stem cells by short-term labeling or cells with a nucleotide analog such as bromodeoxyuridine (BrdU) or a fusion protein of green fluorescent protein (hereinafter referred to as “GFP”) and a nucleoprotein, histone, followed by selection of cells retaining the label for a long period of time (label-retaining cells). In this experiment, with the use of a tetracycline-inducible expression system in combination with the ROSA26 promoter, a fusion protein of GFP and histone H2B (H2B-GFP) was expressed in the heart of a mouse for 2 weeks starting 1 week before birth, and 6 weeks later, cardiac stem cells were separated as GFP label-retaining cells from the heart.
To explore whether polydom serves as a scaffold for integrin α9β1-expressing cardiac stem cells, cardiac stem cells were separated as GFP label-retaining cells and subjected to a cell adhesion assay. A 96-well immuno plate (Nunc Maxisorp) was coated with 50 μl/well of 100 nM polydom or fibronectin at 4° C. overnight, GFP label-retaining cells were collected by FACSAria and suspended at 1×10^6 cells/ml in serum-free Iscove's Modified Dulbecco Medium (hereinafter referred to as “IMDM”). The cell suspension was plated at 100 μl/well and cultured in a 5% CO2 incubator at 37° C. for 12 hours. After three washes with PBS, the cells were fixed with 100 μl/well of 3.7% formalin for 15 minutes. Then, the cells were incubated with 0.5% toluidine blue (150 μl/well) for 10 minutes and washed with MilliQ water. After drying, the number of attached cells was counted under a microscope.

The next test concerns RD cells. Kind of test: Cell adhesion assay on coated plates (RD cells). The format is cell-based, human. As to the method: A cell adhesion assay was performed as described in Sato, Y. , Uemura, T., Morimitsu, K., Sato-Nishiuchi, R., Manabe, R., Takagi, J., Yamada, M., and Sekiguchi, K. (2009) J. Biol. Chem. 284, 14524-14536. For an assay involving blocking antibodies, RD cells (human rhabdomyosarcoma cells) were preincubated with monoclonal antibodies of interest at room temperature for 15 minutes and plated on 96-well plates coated with recombinant polydom proteins or fibronectin. The cells were incubated for 30 minutes, washed, fixed with 3.7% formaldehyde, and stained with 0.5% toluidine blue.
The cells were plated on 96-well plates coated with serial diluted concentrations of full-length polydom, pol-N, pol-C or plasma fibronectin (FN) and incubated at 37° C. for 30 minutes. After washing out unattached cells, attached cells were fixed and stained with toluidine blue. The attached cells were counted under a microscope. The assay was performed in triplicate.

Test [1] relates to hematopoietic stem cells. Kind of test: Proliferation of hematopoietic stem cells on coated plates. The format is cell-based, mouse. As for the experimental part:
(§1) Bone marrow cells were flushed out from the femurs and tibias of three mice of 6 to 7 weeks of age (C57BL/6J) and dissociated with a 22G needle. The cells were reacted with a biotin-labeled anti-lineage antibody for 30 minutes and subsequently with an anti-blotin antibody-conjugated magnetic beads, and lineage-positive cells were removed by automated magnetic cell sorter autoMACS (Miltenyi Biotec). After staining with PE-CD3, PE-Mac1, PE-Gr1, PE-Ter119, PE-B220, FTTC-Sca1 and APC-c-Kit, a lineage(−) Sca1(+) c-Kit (high) cell fraction was sorted out using FACSAria and used for the experiments described below.
(§2) The above-prepared cells were plated on a 48-well plate coated with a recombinant polydom protein or fibronectin. The same type of plate without coating was used as a control. The medium used was RPMI containing 10% fetal calf serum, thrombopoietin (30 ng/ml) and flt3 ligand (100 ng/ml). For the examination of cell proliferation, the cells were plated in duplicate wells for each coating at 1000 cells/well and started to be cultured, and the cell number was counted at the start of culture, and on day 2 and day 3. The remaining cells were divided into three aliquots, plated in wells for each coating, and subjected to FACS analysis on day 3 after the start of culture. For the FACS analysis, staining with an antibody cocktail containing PE-CD3, PE-Mac1, PE-Gr1, PE-Ter119, PE-B220, FITC-Sca1 and APC-c-Kit was performed and FACSCont was used.
The above-prepared cells were divided into three groups and plated on 48-well plates at 5000 cells/well. The medium used was RPMI containing 10% fetal calf serum, thrombopoietin (30 ng/ml) and flt3 ligand (100 ng/ml). For an EDDMMEVPY peptide treatment group, 2 μl of the peptide was added to each well at the final concentration of 50 μM, and for the other two groups, 2 μl of PBS was added to each well. Then, the culture was performed at […] for 2 hours. Subsequently, the cells were transferred to 48-well plates coated with a recombinant polydom protein or fibronectin. The cells cultured in the presence of the peptide were transferred to the recombinant polydom protein-coated plate, and the cells in one of the other two groups were transferred to the recombinant polydom protein-coated plate, and the cells in the remaining group were transferred to the fibronectin-coated plate. The culture was continued for 3 days and the cell numbers were counted on day 2, day 3 and […].

Test [2] has as its system hematopoietic stem cells. Kind of test: FACS analysis of differentiation of hematopoietic stem cells on coated wells. The note with it: day 3 of culture on coated well, FIG. 19. The format is cell-based, mouse. As to the method: as §1, §2
On the technique in general: Flow cytometry measures light scatter and fluorescence of single cells or particles in a stream.

The subject of the next test is A549 cells. Kind of test: Cell adhesion assay on coated plates (A549 cells). The format is cell-based, human. The note with it: data not shown.
A further test relates to HT1080 cells. Kind of test: Cell adhesion assay on coated plates (HT1080 cells). In kind it is cell-based, human. The note with it: data not shown.

Consider “polydom: recombinant mouse SVEP1 (SEQ ID NO: 2), ECM protein, ligand for integrin α9β1”, for which the “adhesion of cardiac stem cells to coated plate” value with cardiac stem cells (12 hours, serum-free IMDM) is recorded as “a large number of the cells adhered”. Further, the “cell adhesion activity for cardiac stem cells compared with fibronectin” value with cardiac stem cells is “equivalent or superior to fibronectin”. Also, the “coating concentration attaining the maximum adhesion of RD cells” value in the test on RD cells (96-well plates, 37° C. for 30 minutes, FIG. 4) worked out at 3 µg/mL. Also, the “promotion of RD cell adhesion” value in the test on RD cells (coated 96-well plates, 37° C. for 30 minutes, FIG. 4) is listed as “coating concentration-dependent manner”. The “morphology of attached RD cells” value in the test on RD cells (microscopic observation, FIG. 5) is listed as “exhibited spread morphology”. Further, the “proliferation of hematopoietic stem cells on coated wells” value with hematopoietic stem cells [1] (1000 cells/well, counted to day 3, versus uncoated control, FIG. 18) was “remarkably inhibited from proliferating”. In addition, the “proliferation of hematopoietic stem cells on coated plate after PBS pretreatment” value with hematopoietic stem cells [1] (5000 cells/well, counted day 2 to day 4, FIG. 20) is “remarkably inhibited from proliferating”. Also, in the test with hematopoietic stem cells [2], the “expression of Sca1 on hematopoietic stem cells” value is recorded as “maintained the expression of Sca1” and the “expression of c-Kit on hematopoietic stem cells” value was “reduced expression of c-Kit”. The “adhesion of A549 cells” value in the test on A549 cells is given as “did not adhere”. Moreover, the “adhesion of HT1080 cells” value in the test with HT1080 cells is listed as “did not adhere”.
